Experiments:
SF-268 (CNS) = test: In vitro cytotoxicity against SF-268 cells; type: cell-based; conditions: Homo sapiens, SF-268; mean ± standard deviation, three experiments
Description: (§1) These benzo[f]indole-4,9-dione derivatives were evaluated in vitro against a panel of cell lines consisting of MCF7 (breast), NCI-H460 (lung), and SF-268 (CNS) as described previously. […] Results from Table 2 indicated compounds 15 and 16 were cytotoxic and their IC50 against three cancer cells and a normal cell, Detroit 551, were shown in Table 3.

[1] = In vitro cytotoxicity against SF-268 cells; type: cell-based; conditions: human, SF-268 CNS cancer cells; 4 μg/mL; read-out: Cytotoxicity (% survival rate), SF-268
Description: as §1

NCI-H460 (lung) = test: In vitro cytotoxicity against NCI-H460 cells; type: cell-based; conditions: Homo sapiens, NCI-H460; mean ± standard deviation, three experiments
Description: as §1

[2] = In vitro cytotoxicity against NCI-H460 cells; type: cell-based; conditions: human, NCI-H460 lung cancer cells; 4 μg/mL; read-out: Cytotoxicity (% survival rate), NCI-H460
Description: as §1

MCF7 (breast) = test: In vitro cytotoxicity against MCF7 cells; type: cell-based; conditions: Homo sapiens, MCF7; mean ± standard deviation, three experiments
Description: as §1

[3] = In vitro cytotoxicity against MCF7 cells; type: cell-based; conditions: human, MCF7 breast cancer cells; 4 μg/mL; read-out: Cytotoxicity (% survival rate), MCF7
Description: as §1

Detroit 551 = test: In vitro cytotoxicity against normal cell Detroit 551; type: cell-based; conditions: Homo sapiens, mean ± standard deviation, three experiments
Description: as §1

[4] = tested on: LPS-induced PGE2 production; parameters: method as in PMID 22161217; conditions: read-out: Inhibition of LPS-induced PGE2 production, IC50; cited from earlier work
[5] = tested on: LPS-induced Raw 264.7 cells; parameters: method as in PMID 23232148; conditions: cited from earlier work
[6] = tested on: LPS-induced Raw 264.7 cells; parameters: method as in PMID 23232148; conditions: cited from earlier work; remark: listed apart in the source
K562 cell = tested on: K562 cell; parameters: method as in PMID 20591678; conditions: read-out: IC50 against the growth of K562 cell; cited from earlier work
[7] = tested on: fMLF-activated human neutrophils; test: Superoxide anion generation in fMLF-activated human neutrophils (ferricytochrome c reduction); type: cell-based; conditions: Neutrophil, mean ± SEM (n = 3), read-out: Superoxide Anion (IC50, concentration necessary for 50% inhibition)
Description: (§2) Blood was taken from healthy human donors (20–30 years old) by venipuncture, using a protocol approved by the institutional review board at Chang Gung Memorial Hospital. Neutrophils were isolated with a standard method of dextran sedimentation prior to centrifugation in a Ficoll Hypaque gradient and hypotonic lysis of erythrocytes.
(§3) Superoxide generation and elastase release were carried out according to the procedures described previously. Neutrophils (6 × 10^5/mL) were equilibrated at 37 °C for 2 min and incubated with compounds for 5 min. Neutrophils were then activated by fMLF (100 nM) in the pretreatment of cytochalasin B (1 μg/mL for superoxide generation and 0.5 μg/mL for elastase release) for 10 min. Superoxide anion production was assayed by monitoring the superoxide dismutase-inhibitable reduction of ferricytochrome c. Elastase release was performed using MeO-Suc-Ala-Ala-Pro-Valp-nitroanilide as the elastase substrate.

[8] = tested on: fMLF-activated human neutrophils; test: Neutrophil elastase release in fMLF-activated human neutrophils; type: cell-based; conditions: for IC50: Homo sapiens, Neutrophil, fMLF-activated human neutrophils, mean ± SEM (n = 3), read-out: Elastase Release (IC50, concentration necessary for 50% inhibition)
Description: as §2, §3

Akt (S473) = test: Western analysis of fMLF-induced Akt phosphorylation in human neutrophils; type: cell-based; conditions: fMLF-activated human neutrophils; Figure 2B
Description: as §2
(§4) Neutrophils were pretreated with compounds for 5 min before being stimulated with fMLF at 37 °C. The reaction was stopped by adding 5 × Laemmli’s sample buffer. Proteins derived from whole-cell lysates were separated by SDS-polyacrylamide gel electrophoresis (PAGE) using polyacrylamide gels and blotted onto nitrocellulose membranes. Immunoblotting was performed using the indicated antibodies and horseradish peroxidase (HRP)-conjugated secondary anti-rabbit antibodies (Cell Signaling Technology, Beverly, MA, USA). The immunoreactive bands were visualized by an enhanced chemiluminescence system (Amersham Biosciences, Bucks, UK) and detected by Ultraviolet Product (UVP) imaging system (Upland, CA, USA).

Src (Src family Y416) = test: Western analysis of fMLF-induced Src phosphorylation in human neutrophils; type: cell-based; conditions: fMLF-activated human neutrophils; Figure 2A
Description: as §2, §4

[Ca^2+]i = fMLF-induced intracellular calcium mobilization in human neutrophils (fluo-3 AM); type: cell-based; conditions: Figure 3
Description: as §2
Neutrophils were loaded with fluo-3 AM (2 μM) at 37 °C for 45 min. Cells were preincubated with compounds for 5 min, and then activated by fMLF (100 nM). The change in fluorescence was monitored using a Hitachi F-4500 spectrofluorometer (Tokyo, Japan). The excitation wavelength was 488 nm, and the emission wavelength was 520 nm.

human neutrophils = test: Cytotoxicity in human neutrophils by lactate dehydrogenase (LDH) release; type: cell-based
Excerpt: The action mechanisms of 10 in human neutrophils were further investigated. Human neutrophil activations, such as respiratory burst and degranulation, are regulated by Akt and calcium signal pathways. Therefore, calcuim and Akt are considered as therapeutic target for developing anti-inflammatory agents.
as §2

alveolar macrophages [9] = tested on: alveolar macrophages; parameters: method as in PMID 10188987; conditions: cited from earlier work
alveolar macrophages [10] = tested on: alveolar macrophages; parameters: method as in PMID 10188987; conditions: cited from earlier work; remark: listed apart in the source
[11] = tested on: superoxide anion generation; parameters: method as in PMID 22510297; conditions: cited from earlier work

Row | Molecule | viability at 4 μg/mL [1] | viability at 4 μg/mL [2] | viability at 4 μg/mL [3] | melting point | IC50 [7] | IC50 [8] | further results
1 | CC[C@@]1(O)C(=O)OCc2c1cc1n(c2=O)Cc2cc3ccccc3nc2-1 [CPT, camptothecin, reference compound] | 25% | 1% | 33% | – | – | – | IC50 (SF-268 (CNS)): 0.19 ± 0.006 µM; IC50 (NCI-H460 (lung)): 0.03 ± 0.003 µM; IC50 (MCF7 (breast)): 0.57 ± 0.03 µM; IC50 (Detroit 551): 0.99 ± 0.09 µM
2 | COc1ccc(-c2nc3c4ccccc4c4occc4c3[nH]2)cc1 [Compound 2, 2-(4-methoxyphenyl)furo[3',2':3,4]naphtho[1,2-d]imidazole] | – | – | – | – | – | – | IC50 [4]: 0.047 µM
3 | COc1ccc(OC2=CC(=O)C(=O)c3ccccc32)cc1 [Compound 4, 4-(4-methoxyphenoxy)naphthalene-1,2-dione] | – | – | – | – | – | – | Inhibition of NO released [5]: able to inhibit; Inhibition of TNF-α released [6]: able to inhibit
4 | O=C1c2ccccc2/C(=N/O)c2ccoc21 [Compound 5, (Z)-4-(hydroxyimino)naphtho[2,3-b]furan-9(4H)-one] | – | – | – | – | – | – | IC50 (K562 cell): 0.82 µM
5 | O=C1c2ccccc2C(=O)c2c1ccn2Cc1ccccc1 [Compound 8, 1-Benzyl-1H-benzo[f]indole-4,9-dione] | 103% | 96% | 99% | 173 to 174 °C | 16.1 ± 1.87 µM | > 30 µM | –
6 | Cc1cc2c(n1Cc1ccccc1)C(=O)c1ccccc1C2=O [Compound 9, 1-Benzyl-2-methyl-1H-benzo[f]indole-4,9-dione] | 106% | 104% | 105% | 139 to 140 °C | 14 ± 4.4 µM | > 30 µM | –
7 | O=C1c2ccccc2/C(=N/O)c2ccn(Cc3ccccc3)c21 [Compound 10, (Z)-1-Benzyl-4-(hydroxyimino)-1H-benzo[f]indol-9(4H)-one] | 106% | 110% | 110% | 202 to 203 °C | 2.74 µM | 2.78 µM | fMLF-induced phosphorylation of Akt (S473) (Akt (S473)): inhibited; fMLF-induced phosphorylation of Src (Src family Y416) (Src (Src family Y416)): did not alter; fMLF-induced mobilization of [Ca^2+]i ([Ca^2+]i): inhibited; Cytotoxicity in human neutrophils (LDH release) (human neutrophils; 30 μM, data not shown): showed no cytotoxicity effects
8 | Cc1cc2c(n1Cc1ccccc1)C(=O)c1ccccc1C2=NO [Compound 11, 1-Benzyl-4-(hydroxyimino)-2-methyl-1H-benzo[f]indol-9(4H)-one] | 102% | 110% | 104% | 259 to 260 °C | 7.47 ± 1.39 µM | > 30 µM | –
9 | CC(=O)c1c2c(n(Cc3ccccc3)c1C)C(=O)c1ccccc1C2=O [Compound 12, 3-Acetyl-1-benzyl-2-methyl-1H-benzo[f]indole-4,9-dione] | 115% | 88% | 78% | 135 to 136 °C | > 30 µM | > 30 µM | –
10 | CC(=NO)c1c2c(n(Cc3ccccc3)c1C)C(=O)c1ccccc1C2=O [Compound 13, 1-Benzyl-3-[1-(hydroxyimino)ethyl]-2-methyl-1H-benzo[f]indole-4,9-dione] | 109% | 111% | 106% | 204 to 205 °C | 10.5 ± 0.52 µM | 14.7 ± 2.44 µM | –
11 | CON=C(C)c1c2c(n(Cc3ccccc3)c1C)C(=O)c1ccccc1C2=O [Compound 14, 1-Benzyl-3-[1-(methoxyimino)ethyl]-2-methyl-1H-benzo[f]indole-4,9-dione] | 112% | 108% | 104% | 168 to 169 °C | > 30 µM | > 30 µM | –
12 | CCN(CC)CCNC(=O)c1ccc(/N=C2/c3ccccc3C(=O)c3c2ccn3Cc2ccccc2)cc1 [Compound 15, (Z)-4-(1-benzyl-9-oxo-1H-benzo[f]indol-4(9H)-ylideneamino)-N-[2-(diethylamino)ethyl]benzamide] | 120% | 31% | 82% | 152 to 153 °C | – | – | IC50 (SF-268 (CNS)): 27.4 ± 0.39 µM; IC50 (NCI-H460 (lung)): 3.16 ± 0.13 µM; IC50 (MCF7 (breast)): 4.98 ± 0.15 µM; IC50 (Detroit 551): 7.68 ± 0.58 µM; Cytotoxicity in human neutrophils (LDH release) (human neutrophils; 3, 10 and 30 μM): showed cytotoxicity effects
13 | CCN(CC)CCNC(=O)c1ccc(/N=C2/c3ccccc3C(=O)c3c2cc(C)n3Cc2ccccc2)cc1 [Compound 16, (Z)-4-(1-benzyl-2-methyl-9-oxo-1H-benzo[f]indol-4(9H)-ylideneamino)-N-[2-(diethylamino)ethyl]benzamide] | 106% | 18% | 57% | 138 to 139 °C | 0.52 ± 0.11 µM | – | IC50 (SF-268 (CNS)): 25.8 ± 1.66 µM; IC50 (NCI-H460 (lung)): 3.23 ± 0.34 µM; Effect of compound alone on elastase release ([8]; human neutrophils, table dash with footnote b = alone induced elastase release): induced NE release of human neutrophils; IC50 (MCF7 (breast)): 4.95 ± 0.21 µM; IC50 (Detroit 551): 4.78 ± 0.57 µM
14 | O=c1cc(N2CCOCC2)oc2c(-c3ccccc3)cccc12 [LY294002, reference compound] | – | – | – | – | 1.36 ± 0.33 µM | 2.21 ± 0.45 µM | –
15 | CC1(C)CCC2=C(O1)c1ccccc1C(=O)C2=O [β-LAPA, β-lapachone] | – | – | – | – | – | – | Inhibition of expression of PGE2 (alveolar macrophages [9]): able to inhibit; Inhibition of expression of nitric oxide (NO) (alveolar macrophages [10]): able to inhibit
16 | benzo[a]furo[2,3-c]phenazinecarboxylic acid [Compound 3] | – | – | – | – | – | – | Inhibition of superoxide anion generation [11]: strongly inhibited superoxide anion generation
